| melting point | SMILES |
| --- | --- |
| 223 to 224 °C | Cc1nc2cccc(S(N)(=O)=O)c2s1 |
| 235 to 239 °C | CCC12CCC3=C(CCc4cc(O)ccc43)C1CCC2=O (configuration not stated) |
| 102 to 105 °C | COc1ccc(C(=O)C2CCN(C(C)=O)CC2)cc1 |
| 119 °C | O=C(NC(Cc1c[nH]c2ccccc12)C(=O)OCc1ccc(Cl)cc1)c1ccccc1 (configuration not stated) |
| 209 °C | COc1ccc(C2CC(C(C)(C)C)=NN2c2ccc(C(=O)O)cc2)cc1 (configuration not stated) |
| 166 to 168 °C | CCOC(=O)C(C)(C)n1c(=O)[nH]c2cc(F)c(F)cc2c1=O |
| 137 to 139 °C | O=C(NCc1ccccc1)c1ccnc(-n2cnn(CC3CC3)c2=O)c1 |
| 174 to 177 °C | CCOC(=O)c1c(N)oc(-c2ccc([N+](=O)[O-])cc2)c1C(=O)OCC |
| 235 to 238 °C | Cc1ccc(C(=O)Nc2nc(=O)c3ccccc3n2C)cc1 |
| 93 to 95 °C | CC(C)(O)CCCCCc1cccc(C=Cc2ccc(CO)c(CO)c2)c1 |
| 87 to 88 °C | CCC1=CC(=O)c2ccccc2C1=O |
| 145 to 147 °C | CCOC(=O)N1CCc2nnc(NN)cc2C1 |
| 193 to 194 °C | O=C(NCc1cccs1)[C@@H]1CCCN(c2cccc3c2C(=O)N(Cc2ccncc2)C3=O)C1 |
| 162 to 164 °C | N#Cc1cc([N+](=O)[O-])ccc1Oc1cc(Cl)c(Cl)c(Cl)c1 |
| 142 °C | CC(Cc1n[nH]c(=O)c2ccccc12)c1cccnc1 (configuration not stated) |
| 76 to 77 °C | CC(C)C(=O)NC[C@@H]1CN2C(=O)C[C@H]2O1 (racemic) |
| 83 to 86 °C | O=C(Cc1ccccc1)c1cc(Br)ccc1O |
| 40 to 45 °C | OCC(CCc1ccc(Cl)cc1)Cn1cncn1 (configuration not stated) |
| 87 to 88 °C | OCc1cnn(-c2c(Cl)cc(C(F)(F)F)cc2Cl)n1 |
| 178 to 180 °C | Cc1c(Cl)cccc1Nc1ncccc1C(=O)OC1OC(=O)c2ccccc21 (configuration not stated) |
| 160 to 162 °C | CCC(=O)N1C(=O)C(=O)c2cc(Cl)ccc21 |
| 123 to 128 °C | COc1cccc(N(CCN2CCC(C(=O)c3ccc(F)cc3)CC2)C(=O)c2ccc(NC(N)=O)cc2)c1 |
| 62 to 69 °C | CS(=O)(=O)Nc1cc([C@@H](O)CNC2CCN(c3ccc(S(=O)(=O)N4CCC[C@@H]4C(=O)OCc4ccccc4)cc3)CC2)ccc1O |
| 53 to 55 °C | CCC(C)Nc1ccc([N+](=O)[O-])cc1[N+](=O)[O-] (configuration not stated) |
| 212 °C | Cc1nc(Cl)c2c(-c3ccc([N+](=O)[O-])o3)nn(C)c2n1 |

| melting point | SMILES |
| --- | --- |
| 220 to 222 °C | CCOC(=O)C=C(C)C=CC=C(C)C=Cc1c(C)c(Cl)c(C)c(Cl)c1C |
| 141 to 143 °C | CCOc1cc2ncnc(Cl)c2cc1OCC |
| 198 to 199 °C | O=c1nc(-c2ccccn2)sc2ccc(OCc3ccccc3)cc12 |
| 201 to 203 °C | COc1c(-c2nnc(C)s2)cc2oc(=O)c(C)c(C)c2c1C |
| 170 to 171 °C | Cc1cc(C)c(-n2ccc3c(Cl)nn(C)c(=O)c32)c(C)c1 |
| 169 °C | CN(C)CCCNC(=O)c1ccccc1-c1cc2cc(Cl)c(Cl)cc2[nH]1 |
| 140 to 141 °C | SCc1cn(C(c2ccccc2)(c2ccccc2)c2ccccc2)nn1 |
| 155 to 157 °C | NS(=O)(=O)c1cccc(C2(O)CCC2)c1 |
| 148 to 150 °C | CC(=O)N1C(C(=O)NCCO[N+](=O)[O-])CSC1c1ccccc1C(=O)O (configuration not stated) |
| 151 to 153 °C | COC(=O)C1CN(C(=O)COc2ccccc2)c2ccccc2CN1S(=O)(=O)c1ccc(OC)cc1 (configuration not stated) |
| 138 to 140 °C | CCOC(=O)CN1C(=O)c2cccc3c(Cl)ccc1c23 |
| 123 °C | COc1cc(-n2cnnc2I)ccc1C |
| 42 to 43 °C | CC12CCC(C1)C(C)(C)C2(S)CCN (configuration not stated) |
| 204 to 206 °C | Nc1nc(-c2ccccc2)c(-c2ccc(=O)n(CC3CC3)n2)s1 |
| 261 to 262 °C | CCCOc1ccccc1-c1nc2ncncc2c(=O)n1N |
| 253 to 255 °C | COc1cc(OC)c(-c2cccnc2)cc1/C=C/C(=O)c1ccc(S(N)(=O)=O)cc1 |
| 230 to 232 °C | COc1cc(N2CCN([C@H]3CC[C@H](c4cn(C)c5ccc(C#N)cc54)CC3)CC2)c2nccc(C)c2c1 |
| 145 to 148 °C | CC(=O)OC1C(C)OC(n2c(Br)nc3cc(Cl)c(Cl)cc32)C1OC(C)=O (configuration not stated) |
| 133 °C | O=C(O)CCNC(=O)C(=Cc1cccc2ccccc12)CS |
| 167 to 169 °C | CCCCCCCCCCCC(=O)c1c[nH]c2cc(C(=O)OC)ccc12 |
| 99 to 100 °C | CN(Cc1ccccc1)C(=O)CCc1nc(-c2ccc(Cl)cc2)co1 |
| 214 to 216 °C | CCOc1ccc(C(C)=O)cc1C(=O)Nc1c(C)cccc1C(N)=O |
| 132 °C | COc1cccc(C(=O)c2ccc(OC)c(C(=O)O)c2)c1 |
| 178 to 179 °C | C=Cc1c(F)c(F)cc2c(=O)c(C(=O)OCC)cn(C3CC3)c12 |
| 30 °C | OC1(O)C(F)(F)CCCC1(Cl)Cl |

| melting point | SMILES |
| --- | --- |
| 146 to 150 °C | CC(C)[C@@H]1CC[C@@H](C)C[C@H]1C(=O)Nc1ccc(CC#N)cc1 |
| 127 to 129 °C | Cn1c(=O)oc2cc(C(O)CBr)cnc21 (configuration not stated) |
| 188 to 189 °C | O=C(COc1ccc2ccccc2c1)NCc1ccc(C(=O)O)cc1 |
| 234 °C | O=c1[nH]c2cc([N+](=O)[O-])c(-n3ccc(C=NO)c3)cc2n(C2CCCCC2)c1=O |
| 56 to 59 °C | O=C(O)CCCCCCCCCCCCCCCOCc1ccccc1 |
| 260 to 261 °C | O=C(NCc1c[nH]c(=S)n1[C@H]1CCc2c(F)cc(F)cc2C1)c1ccccc1 |
| 146 to 147 °C | Cc1nnc(-c2ccc3occ(-c4cccc(OC(F)(F)F)c4)c3n2)o1 |
| 95 to 97 °C | O=C(CCCNC(=O)C(=O)c1cn2c3c(cccc13)CCC2)NO |
| 67 to 68.5 °C | CCN(CC#N)S(=O)(=O)Cc1cccc(C(F)(F)F)c1 |
| 190 °C | c1cc2c(ccc3[nH]c4c(c32)CNCC4)s1 |
| 251 to 252 °C | CC1(C)Oc2ccc(Br)cc2C(Oc2ccnc(O)c2)C1(C)O (configuration not stated) |
| 167 to 168 °C | CSc1ccc(NC(=O)C(C#N)C(=O)c2cccn2C)cc1 (configuration not stated) |
| 194 to 198 °C | CCc1nc(C)n2nc(C(=O)O)nc2c1Cc1ccc(-c2ccccc2-c2nnn[nH]2)cc1 |
| 197 to 198 °C | CCOP(=O)(Cc1ccc(NC(=O)c2sc(SC)c3c2CCc2nc(C)oc2-3)cc1)OCC |
| 40 to 43 °C | CCOC(=O)c1snc(OCC)c1Br |
| 40 to 42 °C | CCCCCCCCCCCC(=O)OC1CC(c2ccccc2)NC(c2ccccc2)C1 (configuration not stated) |
| 110 to 112 °C | Cc1ccc2c3c(ccc2n1)OC[C@H](CN1CCN(c2cccc(Cl)c2)CC1)O3 |
| 94 to 96.5 °C | C=CCc1cc(C2=NNC(=O)CC2)ccc1OCC(O)CNC(C)C (configuration not stated) |
| 276 °C | Fc1ccc(-c2nc(-c3ccc[nH]3)[nH]c2-c2ccc(F)cc2)cc1 |
| 54 to 56 °C | CCCNC(=O)n1nc(Oc2ncc(C(F)(F)F)cc2Cl)c(Cl)c1C |
| 76 to 78 °C | CCCOC(=O)c1cc(-n2c(OC)nc(C(F)(F)F)c(F)c2=O)c(F)cc1Cl |
| 188 to 193 °C | Cc1cc(CN(C(=O)Nc2ccc(C(=O)O)cc2)c2ccc3c(c2)C(C)(C)CCC3(C)C)no1 |
| 65 to 67 °C | CC(C)NC(=O)NCCSCc1ccc(CN(C)C)o1 |
| 148 to 150 °C | Cc1ccccc1N1CCc2c(C)nc3ccccc3c21 |
| 238 °C | CN(C)C(=O)Nc1c(C(=O)c2occc2CO)[nH]c2cc(Cl)ccc12 |

| melting point | SMILES |
| --- | --- |
| 130 to 132 °C | CC(C)c1cccc(N2CC(=O)NC(=O)N2)c1 |
| 110 to 113 °C | COC(=O)CN(NC(N)=O)c1ccc(Oc2ccccc2)cc1 |
| 121 to 123 °C | CCOC(=O)c1c(-c2ccccc2C)c2cc(C)c(Cl)cc2n(C)c1=O |
| 71 to 84 °C | COc1cc(C2CCN(C)CC2)ccc1Nc1ncc2ccc(-c3ccccc3OC)n2n1 |
| 92 °C | COc1cc2c(c(Cl)c1Cl)C(=O)C(CCCCCl)C2 (configuration not stated) |
| 222 to 225 °C | CCCC(=O)c1c[nH]c2c(OC)csc2c1=O |
| 177 to 180 °C | COc1ccc(N2CCN(c3cc4c(cc3-c3cccnc3)OC(C)(C)C4)CC2)cc1 |
| 192 to 194 °C | O=c1cc(Cc2c[nH]c3ccccc23)[nH]n1C1CCCCC1 |
| 125 to 126 °C | COc1ccc2ccccc2c1CN1CCC(=O)C(C(c2ccc(F)cc2)c2ccc(F)cc2)C1 (configuration not stated) |
| 174 to 176 °C | Cc1cccc(NC(=O)NC2CN(C(=O)C(C)C)c3ccccc3N(CC(=O)c3ccccc3C)C2=O)c1 (configuration not stated) |
| 152 to 153 °C | CC(C)(C)OC(=O)NC(CF)C(F)CN1C(=O)c2ccccc2C1=O (configuration not stated) |
| 245 to 248 °C | CNS(=O)(=O)c1cc(C(=O)O)cc(N2CCCC2)c1Oc1ccccc1 |
| 174 to 175 °C | CS(=O)(=O)c1ccc(-c2c(-c3ccc(F)cc3)c(OCc3ccccc3)nn2Cc2ccccc2)cc1 |
| 228 to 230 °C | Fc1cc(CC2(Cc3ccncc3)c3cccnc3-c3ncccc32)ccn1 |
| 238 to 240 °C | COC(=O)c1cc(NC(=N)N)c(NC(C)=O)c(Br)c1O |
| 95 to 97 °C | O=[N+]([O-])c1ccc(CCN2CCC(N3CCc4ccccc43)CC2)cc1 |
| 74 to 76 °C | OCCCCc1n[nH]c2ccc(C(F)(F)F)cc12 |
| 79.5 °C | CN1CCN(c2nn3ccnc3c3c2CCCC3)CC1 |
| 100 to 101 °C | CCOC(=O)CC(C)c1ccc(C2COc3c(C)c(C)c(NC(=O)CC(C)(C)C)c(C)c32)cc1 (configuration not stated) |
| 77 to 78 °C | COc1cccc2c(CCOCc3ccc(-c4ccccc4)cc3)coc12 |
| 131 to 132 °C | N#CCNC(=O)c1ccnc(Cl)c1 |
| 157 to 158 °C | CCCCCS(=O)(=O)NC(=O)c1ccc2[nH]cc(Cc3ccc(Cl)cc3Cl)c2c1 |

| SMILES | melting point |
| --- | --- |
| [N-]=[N+]=Nc1cc(N)cc(I)c1 | 89 to 91 °C |
| C=CCN(CC=C)Cc1noc(-c2ncn3c2[C@@H]2CCCN2C(=O)c2c(Cl)cccc2-3)n1 | 175 to 177 °C |
| Cn1cc2c(c1)-c1ccc(Cl)cc1C(c1ccccc1F)=NC2 | 142 to 144 °C |
| O=C(CC1NCCCC1O)Cn1cnc2cc(Br)c(Cl)cc2c1=O (configuration not stated) | 205 °C |
| O=C(Nc1cccc(-c2ccnc3c(C(=O)c4cccs4)cnn23)c1)OCC(Cl)(Cl)Cl | 197 to 200 °C |
